Test results reported in US20070117743A1, “New antitumoral compounds” (priority 2003, published 2007).
Where a SMILES comes first, the peptide text is derived from it. Bridges are numbered along the chain shown (N, C = ends). [ ]: non-standard residue; d: D form. The star is where a group is joined. d(aIle) = CC[C@H](C)[C@@H](N)C(=O)O; d(aThr) = C[C@@H](O)[C@@H](N)C(=O)O; Hexanoyl(5-Me) = CC(C)CCCC(=O)*; Orn = NCCC[C@H](N)C(=O)O; Dhb = C/C=C(\N)C(=O)O

Tests used:
Type in all cases: cell-based, human
LoVo-Dox = assay: SRB colorimetric assay of cell growth and viability, LoVo-Dox; conditions: 48 hours exposure; for CC50: read-out: LC50 LOVO-DOX
Description: (§1) The finality of this assay is to interrupt the growth of a “in vitro” tumor cell culture by means a continued exhibition of the cells to the sample to be testing.
A colorimetric type of assay, using sulforhodamine B (SRB) reaction has been adapted for a quantitative measurement of cell growth and viability [following the technique described by Philip Skehan, et al. (1990), New colorimetric cytotoxicity assay for anticancer drug screening, J. Natl. Cancer Inst., 82:1107-1112].
(§2) This form of the assay employs 96 well cell culture microplates of 9 mm diameter (Faircloth, 1988; Mosmann, 1983). Most of the cell lines are obtained from American Type Culture Collection (ATCC) derived from different human cancer types.
(§3) Cells are maintained in RPMI 1640 10% FBS, supplemented with 0.1 g/l penicillin and 0.1 g/l streptomycin sulfate and then incubated at 37° C., 5% CO2 and 98% humidity. For the experiments, cells were harvested from subconfluent cultures using trypsin and resuspended in fresh medium before plating.
(§4) Cells are seeded in 96 well microtiter plates, at 5×10^3 cells per well in aliquots of 195 μL medium, and they are allowed to attach to the plate surface by growing in drug free medium for 18 hours. Afterward, samples are added in aliquots of 5 μL in a ranging from 10 to 10^−8 μg/mL, dissolved in DMSO:EtOH:PBS (0.5:0.5:99). After 48 hours exposure, the antitumor effect are measured by the SRB methodology: cells are fixed by adding 50 μL of cold 50% (wt/vol) trichloroacetic acid (TCA) and incubating for 60 minutes at 4° C. Plates are washed with deionized water and dried. One hundred μL of SRB solution (0.4% wt/vol in 1% acetic acid) is added to each microtiter well and incubated for 10 minutes at room temperature. Unbound SRB is removed by washing with 1% acetic acid. Plates are air dried and bound stain is solubilized with Tris buffer. Optical densities are read on a automated spectrophotometric plate reader at a single wavelength of 490 nm.
(§5) The values for mean+/− SD of data from triplicate wells are calculated. Some parameters for cellular responses can be calculated: GI=growth inhibition, TGI=total growth inhibition (cytostatic effect) and LC=cell killing (cytotoxic effect).

HeLa-APL = assay: SRB colorimetric assay of cell growth and viability, HeLa-APL; conditions: 48 hours exposure; for CC50: read-out: LC50 HELA-APL
Description: as §1, §2, §3, §4, §5

K-562 = assay: SRB colorimetric assay of cell growth and viability, K-562; conditions: 48 hours exposure; for CC50: read-out: LC50 K-562
Description: as §1, §2, §3, §4, §5

SK-MEL-28 = assay: SRB colorimetric assay of cell growth and viability, SK-MEL-28; conditions: 48 hours exposure; for CC50: read-out: LC50 MEL-28
Description: as §1, §2, §3, §4, §5

LoVo = assay: SRB colorimetric assay of cell growth and viability, LoVo; conditions: 48 hours exposure; for CC50: read-out: LC50 LOVO
Description: as §1, §2, §3, §4, §5

IGROV-1 = assay: SRB colorimetric assay of cell growth and viability, IGROV-1; conditions: 48 hours exposure
Description: as §1, §2, §3, §4, §5

HeLa = assay: SRB colorimetric assay of cell growth and viability, HeLa; conditions: 48 hours exposure; for CC50: read-out: LC50 HELA
Description: as §1, §2, §3, §4, §5

IGROV-ET = assay: SRB colorimetric assay of cell growth and viability, IGROV-ET; conditions: 48 hours exposure; for CC50: read-out: LC50 IGROV-ET
Description: as §1, §2, §3, §4, §5

DU-145 = assay: SRB colorimetric assay of cell growth and viability, DU-145; conditions: 48 hours exposure
Description: as §1, §2, §3, §4, §5

PANC-1 = assay: SRB colorimetric assay of cell growth and viability, PANC-1; conditions: 48 hours exposure; for CC50: read-out: LC50 PANC-1
Description: as §1, §2, §3, §4, §5

HT-29 = assay: SRB colorimetric assay of cell growth and viability, HT-29; conditions: 48 hours exposure; for GI50: read-out: GI50 HT-29; for CC50: read-out: LC50 HT-29
Description: as §1, §2, §3, §4, §5

A-549 = assay: SRB colorimetric assay of cell growth and viability, A-549; conditions: 48 hours exposure; for GI50: read-out: GI50 A-549; for CC50: read-out: LC50 A-549
Description: as §1, §2, §3, §4, §5

| Compound | GI50 (LoVo-Dox) [µM] | TGI LOVO-DOX (LoVo-Dox) [Molar] | CC50 (LoVo-Dox) [µM] | GI50 (HeLa-APL) [µM] | TGI HELA-APL (HeLa-APL) [Molar] | CC50 (HeLa-APL) [µM] | GI50 (K-562) [µM] | TGI K-562 (K-562) [Molar] | CC50 (K-562) [µM] | GI50 (SK-MEL-28) [µM] | TGI MEL-28 (SK-MEL-28) [Molar] | CC50 (SK-MEL-28) [µM] | GI50 (LoVo) [µM] | TGI LOVO (LoVo) [Molar] | CC50 (LoVo) [µM] | GI50 (IGROV-1) [µM] | LC50 (concentration causing 50% net cell killing) (IGROV-1) [µM] | TGI IGROV (IGROV-1) [Molar] | GI50 (HeLa) [µM] | TGI HELA (HeLa) [Molar] | also measured |
| --- | --- | --- | --- | --- | --- | --- | --- | --- | --- | --- | --- | --- | --- | --- | --- | --- | --- | --- | --- | --- | --- |
| C/C=C1\NC(=O)[C@H](Cc2ccccc2)NC(=O)[C@@H](C(C)C)NC(=O)[C@@H]([C@@H](C)CC)NC(=O)[C@H](NC(=O)[C@H](NC(=O)[C@H](CCCN)NC(=O)[C@H]2CCCN2C(=O)[C@H](NC(=O)[C@@H](NC(=O)CNC(=O)CCCC(C)C)C(C)C)C(C)C)[C@@H](C)CC)[C@@H](C)OC(=O)[C@H](C(C)C)NC1=O [Compound 53, [Gly^12, noD-Val^13]-KF] ({Hexanoyl(5-Me)}-GV[dV][dP][Orn][d(aIle)][d(aThr)][d(aIle)][dV]F[Dhb]V; ester 7-C) | 7.49 | 7.49E−06 | 7.49 | 7.49 | 7.49E−06 | 7.49 | 7.49 | 7.49E−06 | 7.49 | 7.49 | 7.49E−06 | 7.49 | 5.29 | 7.49E−06 | 7.49 | 7.49 | 7.49 | 7.49E−06 | 7.49 | 7.49E−06 | CC50 (HeLa): 7.49 µM; GI50 (IGROV-ET): 3.31 µM; TGI IGROV-ET (IGROV-ET): 7.49E−06 Molar; CC50 (IGROV-ET): 7.49 µM; GI50 (DU-145): 7.49 µM; LC50 (concentration causing 50% net cell kill) (DU-145): 7.49 µM; TGI DU-145 (DU-145): 7.49E−06 Molar; GI50 (PANC-1): 4.17 µM; TGI PANC-1 (PANC-1): 7.49E−06 Molar; CC50 (PANC-1): 7.49 µM; TGI HT-29 (HT-29): 7.49E−06 Molar; GI50 (HT-29): 7.49 µM; CC50 (HT-29): 7.49 µM; TGI A-549 (A-549): 7.49E−06 Molar; GI50 (A-549): 7.49 µM; CC50 (A-549): 7.49 µM |
| C/C=C1\NC(=O)[C@H](Cc2ccccc2)NC(=O)[C@@H](C(C)C)NC(=O)[C@@H]([C@@H](C)CC)NC(=O)[C@H](NC(=O)[C@H](NC(=O)[C@H](CCCN)NC(=O)[C@H]2CCCN2C(=O)[C@H](NC(=O)[C@@H](NC(=O)[C@@H](NC(=O)[C@@H](C)NC(=O)CCCC(C)C)[C@@H](C)O)C(C)C)C(C)C)[C@@H](C)CC)[C@@H](C)OC(=O)[C@H](C(C)C)NC1=O [Compound 34, [D-Ala^13]-KF] | 0.35 | 9.73E−07 | 2.48 | 1.59 | 2.63E−06 | 4.34 | 1.34 | 2.66E−06 | 5.25 | 1.81 | 3.01E−06 | 5 | 0.904 | 1.77E−06 | 2.98 | 1.41 | 4.03 | 2.38E−06 | 1.46 | 2.43E−06 | CC50 (HeLa): 4.06 µM; GI50 (IGROV-ET): 1.58 µM; TGI IGROV-ET (IGROV-ET): 2.56E−06 Molar; CC50 (IGROV-ET): 4.14 µM; GI50 (DU-145): 2.21 µM; LC50 (concentration causing 50% net cell kill) (DU-145): 4.79 µM; TGI DU-145 (DU-145): 3.26E−06 Molar; GI50 (PANC-1): 1.28 µM; TGI PANC-1 (PANC-1): 2.58E−06 Molar; CC50 (PANC-1): 5.21 µM; TGI HT-29 (HT-29): 2.32E−06 Molar; GI50 (HT-29): 1.25 µM; CC50 (HT-29): 4.3 µM; TGI A-549 (A-549): 3.20E−06 Molar; GI50 (A-549): 1.98 µM; CC50 (A-549): 5.17 µM |
| C/C=C1\NC(=O)[C@H](Cc2ccccc2)NC(=O)[C@@H](C(C)C)NC(=O)[C@@H]([C@@H](C)CC)NC(=O)[C@H](NC(=O)[C@H](NC(=O)[C@H](CCCN)NC(=O)[C@H]2CCCN2C(=O)[C@H](NC(=O)[C@@H](NC(=O)[C@@H](NC(=O)[C@@H](NC(=O)CCCC(C)C)C(C)C)[C@@H](C)O)C(C)C)C(C)C)[C@@H](C)CC)[C@@H](C)OC(=O)[C@H](C(C)C)NC1=O [Compound 38, [Val^13]-KF] | 1.12 | 1.94E−06 | 3.36 | 1.85 | 2.88E−06 | 4.49 | 1.28 | 2.28E−06 | 4.05 | 0.805 | 1.68E−06 | 3.55 | 1.29 | 2.40E−06 | 4.47 | 1.01 | 3.53 | 1.89E−06 | 0.046 | 1.55E−07 | CC50 (HeLa): 0.583 µM; GI50 (IGROV-ET): 1.97 µM; TGI IGROV-ET (IGROV-ET): 2.97E−06 Molar; CC50 (IGROV-ET): 4.49 µM; GI50 (DU-145): 1.66 µM; LC50 (concentration causing 50% net cell kill) (DU-145): 4.22 µM; TGI DU-145 (DU-145): 2.65E−06 Molar; GI50 (PANC-1): 0.0254 µM; TGI PANC-1 (PANC-1): 1.20E−07 Molar; CC50 (PANC-1): 0.988 µM; TGI HT-29 (HT-29): 2.12E−06 Molar; GI50 (HT-29): 1.16 µM; CC50 (HT-29): 3.88 µM; TGI A-549 (A-549): 9.88E−07 Molar; GI50 (A-549): 0.307 µM; CC50 (A-549): 2.44 µM |
